Tests used:
[1] = test system: bone marrow-derived mast cells (BMMCs); experiment: Degranulation of BMMCs, β-hexosaminidase release after anti-DNP-IgE / DNP-HSA stimulation; format: cell-based, mice; conditions: pre-treated with 0.1 μM, 1 μM or 10 μM before DNP-HSA stimulation, vs DMSO
Method: The degranulation of BMMCs was evaluated by measuring β-hexosaminidase activity in the culture solution of the mature mast cells. Bone marrow cells obtained from 8-week-old female mice were cultured in a medium for conditioning containing interleukin-3 (IL-3) for 4 weeks to give mature mast cells. The mature mast cells thus prepared were cultured in 24-well plate (5×10^3 cells/well) overnight, and sensitized with 50 ng/mL anti-DNP-IgE (Sigma Chemicals) at 37° C. for 2 hours. The cells were rinsed by MT buffer (137 mmol/L NaCl, 2.7 mmol/L KCl, 1.8 mmol/L CaCl2, 1 mmol/L MgCl2.6H2O, 5.6 mmol/L glucose, 20 mmol/L HEPES, 0.1% BSA, pH7.3), and pre-treated with 0.1 μM, 1 μM or 10 μM fucoxanthin, or dimethyl sulfoxide (DMSO) for 10 minutes. Then, the cells were treated with 2.5 μg/mL DNP-labeled human serum albumin (Sigma Chemicals) at 37° C. for 30 minutes. After incubation, the supernatant was transferred to a 96-well plate and incubated with 3.3 mM p-nitrophenyl-2-acetamide-2-deoxy-β-glucopyranoside at 37° C. for 25 minutes. Absorbance at 405 nm was measured using microplate reader. The results are shown as percentage of total β-hexosaminidase.

[2] = test system: NC/Nga mice; experiment: BrdU uptake in auricular lymph node cells of NC/Nga mice (ELISA); format: in vivo; conditions: topical application for 5 weeks, BrdU i.p. on day 34, vs Vaseline
Source text: On day 12, day 19, day 26 and day 33 after starting application of Vaseline or fucoxanthin, 0.8% picryl chloride (PiCl) was further applied to the back skin of the mice. The behaviors of the mice were observed by video monitoring. On day 34 after starting application of Vaseline or fucoxanthin, bromodeoxyuridine (BrdU, Nacalai Tesque) ([…]) was intraperitoneally administered to the mice. At 5 weeks after starting application of Vaseline or fucoxanthin, the time each mouse spent for scratching behavior in 10 minutes was measured by video monitoring. Then, the mice were sacrificed and the auricular lymph node, blood and skin were obtained. Serum IgE content was determined by enzyme-linked immunosorbent assay (ELISA) using Mouse IgE Assay Kit (Morinaga Institute of Biological Science, Inc.). The auricular lymph node was digested with 0.1% trypsin/0.1% collagenase, the obtained dissociated cells were suspended by pipetting, and the enzyme reaction was stopped by adding Dulbecco's modified Eagle medium (DMEM) containing 10% fetal bovine serum (Wako Pure Chemical Industries, Ltd.). BrdU uptake was determined by ELISA using Cell Proliferation ELISA, BrdU (Colorimetric) (Roche Diagnostics K.K.).

[3] = test system: GATA-luc; experiment: Luciferase reporter assay in HEK293 cells; format: cell-based; conditions: HEK293, treated 3 hours after transfection for 48 hours, vs DMSO (fucoxanthin 0.1, 1, 10 μM)
Source text: (§1) The plasmids pGL3-Cebpα promoter-luc and pGL3-Mitf1 promoter-luc were provided by Dr. Hua Huang (University of Colorado school, Denver, USA). The plasmid NF-κB-luc was purchased from Agilent Technologies (Santa Clara, Calif.). The GATA-responsive reporter vector was provided by Dr. Ishijima (Takasaki University of Health and welfare, Gunma, Japan). Three GATA motifs from mouse α-1 globulin gene (5′-TGATAA-3′) were tandemly inserted into Sma I site of pRBGP3. HDC promoter was provided by Dr. Ootsu (Tohoku University school of Medicine, Sendai, Japan) and cloned into Kpn I-Hind III site of pGL4.10 (Hdc promoter-luc). The reporter assay was performed according to the method described in Kanatani, N. et al. Briefly, HEK293 cells were transfected with each of the luciferase constructs (0.2 μg) or pRL-CMV (Promega, Madison, Wis.) (0.001 μg). At 3 hours after transfection, the cells were treated with fucoxanthin (0.1 μM, 1 μM or 10 μM) or DMSO for 48 hours and reporter assay was performed using Dual-Luciferase® Reporter Assay System (Promega). Luciferase activity was measured using luminometer model TD20/20n (Turner BioSystems, Sunnyvale, Calif.) and normalized to Renilla luciferase activity expressed by CMV promoter.
GATA-reporter assay was performed using HEK293 cells expressing GATA-luc prepared in Example 8, in the same manner as described in Example 8 except using various carotenoids (fucoxanthin, astaxanthin, lycopene, β-carotene or retinoic acid) in place of fucoxanthin.

[4] = test system: histidine decarboxylase (Hdc); experiment: Real time PCR gene expression in bone marrow cells cultured with IL-3; format: cell-based, mice; conditions: 10 μM added day 0, cultured 1-4 weeks, vs DMSO
Method: (§2) Bone marrow cells obtained from 8-week-old female mice was cultured in a medium for conditioning containing IL-3. On the day the bone marrow cells were obtained (day 0), 10 μM fucoxanthin or dimethyl sulfoxide (DMSO) as a control was added to the culture solution and the cells were cultured for 1, 2, 3 or 4 weeks. Quantitative real time PCR was performed according to the method described in Kosaka et al. (supra). Five different cDNA pool dilutions were used for the experiments. The expression levels of PCR products were normalized to that of a housekeeping gene, GAPDH or β-actin, and the measured values were compared with cycle threshold value (Ct value). The primers used are shown below.
(§3) The housekeeping genes GAPDH and β-actin were used for normalization as internal standards. All measurements were performed 4 times.

[5] = test system: PU.1; experiment: as above; format: cell-based, mice; conditions: 10 μM added day 0, cultured 1-4 weeks, vs DMSO
Method: as §2, §3

[6] = test system: FcεRIα; experiment: as above; format: cell-based, mice; conditions: 10 μM added day 0, cultured 1-4 weeks, vs DMSO
Method: as §2, §3

[7] = test system: GATA-1; experiment: as above; format: cell-based, mice; conditions: 10 μM added day 0, cultured 1-4 weeks, vs DMSO
Method: as §2, §3

[8] = test system: GATA-2; experiment: as above; format: cell-based, mice; conditions: 10 μM added day 0, cultured 1-4 weeks, vs DMSO
Method: as §2, §3

[9] = test system: Cebpα; experiment: as above; format: cell-based, mice; conditions: vs DMSO
Method: as §2, §3

[10] = test system: Mitf1; experiment: as above; format: cell-based, mice; conditions: 10 μM added day 0, cultured 1-4 weeks, vs DMSO
Method: as §2, §3

[11] = test system: Hdc-luc; experiment: Luciferase reporter assay in HEK293 cells; format: cell-based; conditions: HEK293, 0.1, 1 or 10 μM for 48 hours, vs DMSO
Source text: as §1

[12] = test system: NF-κB-luc; experiment: Luciferase reporter assay in HEK293 cells; format: cell-based; conditions: HEK293, 0.1, 1 or 10 μM for 48 hours, vs DMSO
Source text: as §1

[13] = test system: Cebpα-luc; experiment: Luciferase reporter assay in HEK293 cells; format: cell-based; conditions: HEK293, 0.1, 1 or 10 μM for 48 hours, vs DMSO
Source text: as §1

[14] = test system: Mitf1-luc; experiment: Luciferase reporter assay in HEK293 cells; format: cell-based; conditions: HEK293, 0.1, 1 or 10 μM for 48 hours, vs DMSO
Source text: as §1

For `CC(=O)O[C@H]1CC(C)(C)C(=C=C/C(C)=C/C=C/C(C)=C/C=C/C=C(C)/C=C/C=C(\C)C(=O)C[C@@]23O[C@]2(C)C[C@@H](O)CC3(C)C)[C@](C)(O)C1` [fucoxanthin], the “release of β-hexosaminidase (degranulation)” value [1] was “suppressed release of β-hexosaminidase in a dose-dependent manner”, the “BrdU uptake (cell proliferation in the auricular lymph node)” value [2] was “not affected” and the GATA-luc expression [3] was “downregulated”. The “expression of Hdc” value [4] was “downregulated”, the “expression of PU.1” value [5] was “did not change significantly” and the “expression of FcεRIα” value [6] was “downregulated”. The “expression of GATA-1” value [7] was “downregulated”, the “expression of GATA-2” value [8] was “downregulated” and the “expression of Cebpα, 3 to 4 weeks” value ([9]; 10 μM added day 0, 3 to 4 weeks after starting culture) was “remarkably upregulated”. For the same compound, the “expression of Cebpα, first 2 weeks” value ([9]; 10 μM added day 0, first 2 weeks of culture) was “downregulated”, the “expression of Mitf1” value [10] was “did not change significantly” and the Hdc-luc reporter activity [11] was “not regulated”. For the same compound, the “NF-κB activity (NFκB-luc)” value [12] was “not affected”, the Cebpα-luc reporter activity [13] was “not regulated” and the Mitf1-luc reporter activity [14] was “not regulated”.
